Source: patent EP4644377A1, “LIPID COMPOUND FOR GENE DELIVERY AND LIPID NANOPARTICLE COMPRISING SAME” (NANJING CYBERNAX BIOMEDICAL TECHNOLOGY CO., LTD., priority 2022, dated 2024)

Columns and labels:
C57Bl/6 mice = experiment: Luciferase mRNA delivery in mice, IVIS chemiluminescence; type: in vivo
Method: The animal experiments were reviewed and approved by the Ethics Committee of Zhejiang Medical College and the Ethics Committee of Zhejiang University of Technology. 6- to 8-week-old male C57Bl/6 mice were randomly grouped with 3 mice in each group. The mice in each group received a lipid nanoparticle coating mRNA expressing a luciferase via tail vein injection at a dose of 0.25 mg/kg mouse body weight (calculated by the mass of coated mRNA). […] The mRNA delivery effect of the lipid nanoparticle is quantitatively compared through a total chemiluminiscence quantity (Total Flux p/s) of a mouse whole body within unit time (shown in Table 5).
Table 13 and Table 14 show whole body chemiluminescent signals when LNPs (formulation 2) composed of the lipids in some examples deliver Flue mRNA in mice. The delivery dose of Flue mRNA was 0.25 mg/kg. 6 h after LNP injection, 150 mg/kg of D-luciferin was intraperitoneally injected into the mice, and then the whole body chemiluminescent signals were collected in the IVIS imaging system after 10 min. […]

[1] = Particle size detection of LNP (Brookhaven NanoBrook Omni, DLS); type: physicochemical; details: LNPs after coating mRNA (luciferase)
Method: Step 1. Preparation of a lipid solution and a nucleic acid solution: unless otherwise specified, all aqueous solutions involved in examples were prepared from deionized water without nucleases. An ionizable lipid, a phospholipid (disaturated phosphatidylcholine (DSPC) or dioleoylphosphatidylethanolamine (DOPE)), cholesterol and a PEG lipid (DMG-PEG2000) were mixed in a molar ratio of 50/10/38.5/1.5 (containing DSPC, formulation 1) or 36.5/16/46.5/2.5 (containing DOPE, formulation 2) and dissolved into an ethanol solution. Meanwhile, a nucleic acid (a mass ratio of ionizable lipid/nucleic acid was 10/1) was dissolved into a citrate buffer solution of pH=3, so that a final volume ratio of the ethanol solution to the citrate solution was 1/3.
Step 2. Preparation of LNP by mixing the lipid solution with the nucleic acid solution: the lipid ethanol solution and the nucleic acid aqueous solution that were prepared in Step 1 were respectively put into a sterile syringe and placed in a Precision Nanosystem Ignite instrument, the extrusion flow speeds of the ethanol solution and the water phase solution were respectively set as 3 ml/min and 9 ml/min in instrument program settings. A microfluidic chip was inserted into the instrument and LNP preparation was initiated, and then a solution mixed by the chip was collected.
Step 2.1. Preparation of an LNP solution coating nucleic acid in a porous plate: a solution of an ionizable lipid, a phospholipid (DSPC or DOPE), cholesterol and a PEG lipid (DMG-PEG2000) in ethanol was added into each well of a 96-well deep plate, so that a molar ratio of four component lipids in each well was 50/10/38.5/1.5 (containing DSPC, formulation 1) or 36.5/16/46.5/2.5 (containing DOPE, formulation 2). Then, a citrate buffer solution (pH=3, the mass of nucleic acid added into each well was 1/10 that of the ionizable lipid in this well) that was three times as ethanol in volume and dissolved with a nucleic acid molecule was quickly added into the well plate through a multi-channel pipette or an automatic liquid dispensing system and rapidly mixed, so as to obtain the LNP solution coating nucleic acid.
Step 3. Purification of the LNP solution: the LNP solution collected in Step 2 or Step 2.1 was subjected to dialysis-concentration-filtration operations, so as to obtain a final LNP solution coating nucleic acid for subsequent testing.
The LNP solution coating nucleic acid obtained in Step 3 was diluted so that the final lipid concentration was between 0.01 mg/ml and 0.1 mg/ml. The diluted solution was added into a sample reservoir, and then subjected to particle size detection in a Brookhaven NanoBrook Omni instrument.

[2] = LNP formulation 2 (SM102: formulation 1), luciferase mRNA 0.25 mg/kg, tail vein, C57Bl/6 mice, whole body signal 6 h after LNP, 10 min after D-luciferin 150 mg/kg i.p.
[3] = LNPs (formulation 2), Flue mRNA 0.25 mg/kg, tail vein injection, whole body signal 6 h after LNP injection, 10 min after 150 mg/kg D-luciferin i.p.

| PDI [1] | Particle size [1] | Compound | Chemiluminescent signal (p/s) (C57Bl/6 mice; [2]) | Chemiluminescent signal (p/s) (C57Bl/6 mice; [3]) |
| --- | --- | --- | --- | --- |
| 0.17 | 240.23 ± 1.39 nm·days | CCCCCCCCCCCC(=O)N(CCCN(C)C)C(C(=O)NCCCCCCCC(=O)OC(CCCCCCCC)CCCCCCCC)C(C)(C)C (stereo not shown) [Lipid 234] | 1.16E+10 p/s | – |
| – | – | CCCCCCCCCCCCNC(=O)C(N(CCCN(C)CCO)C(=O)CCCCCCCCCCC)C(C)(C)C (stereo not shown) [Lipid 188] | 1.92E+10 p/s | – |
| 0.19 | 190.71 ± 1.15 nm·days | CCCCCCCC/C=C\CCCCCCCCOC(=O)CCC(=O)N(CCCN(C)C)C(C(=O)NCCCC(=O)OCCCCCCCC)C(C)(C)C (stereo not shown) [Lipid 223] | 1.26E+10 p/s | – |
| 0.18 | 92.2 ± 0.47 nm·days | CCCCCCCCC(CCCCCC)COC(=O)CCCCCCC(=O)N(CCCN(C)C)C(C(=O)NCCCCCCOC(=O)C(CCCCCC)CCCCCCCC)C(C)(C)C (stereo not shown) [Lipid 436] | – | – |
| – | – | CCCCC/C=C\C/C=C\CCCCCCCC(=O)N(CCCN(C)C)C(C(=O)NCCCCCCCC(=O)OC(CCCCCCCC)CCCCCCCC)C1CCC1 (stereo not shown) [Lipid 937] | – | 1.01E+08 p/s |
| – | – | CCCCCCCCCCCCCCNC(=O)C(N(CCCN(CC)CC)C(=O)CCCCCCCCCCC)C(C)(C)C (stereo not shown) [Lipid 158] | 3.83E+08 p/s | – |
| 0.27 | 253.06 ± 4.58 nm·days | CCCCCCCCCCCCCCNC(=O)C(N(CCCN(CC)CC)C(=O)CCCCCCC/C=C\C[C@H](O)CCCCCC)C(C)(C)C (stereo partly shown) [Lipid 161] | – | – |
| – | – | CCCCCCCCCCCCCC(=O)N(CCCN(C)C)C(C)C(=O)NCCCCCCOC(=O)C(CCCCCC)CCCCCCCC (stereo not shown) [Lipid 1039] | – | 3.31E+06 p/s |
| 0.26 | 128.73 ± 1.97 nm·days | CCCCCCCC/C=C\CCCCCCCCNC(=O)C(N(CCCN(C)C)C(=O)CCCCCCC/C=C\C[C@H](O)CCCCCC)C(C)(C)C (stereo partly shown) [Lipid 16] | 6.94E+09 p/s | – |
| – | – | CC/C=C\C/C=C\C/C=C\C/C=C\C/C=C\CCCC(=O)N(CCCN(C)C)C(C(=O)NCCCCCCOC(=O)C(CCCCCC)CCCCCCCC)C(C)(C)C (stereo not shown) [Lipid 287] | 1.23E+10 p/s | – |
| – | – | CCCCC/C=C\C/C=C\CCCCCCCC(=O)N(CCCN(C)C)C(C(=O)NCCCC(=O)OCCCCCCCC/C=C\CCCCCCCC)C(CC)CC (stereo not shown) [Lipid 108] | 4.23E+09 p/s | – |
| 0.23 | 201.12 ± 47.7 nm·days | CCCCC/C=C\C/C=C\CCCCCCCC(=O)N(CCCN(CC)CC)C(C(=O)NCCCCCCCCCCCCCC)C(C)(C)C (stereo not shown) [Lipid 160] | 1.07E+10 p/s | – |
| 0.23 | 162.23 ± 0.89 nm·days | CCCCCCCCCCCCCC(=O)N(CCCN(C)C)C(C(=S)NCCCCCCCC(=O)OC(CCCCCCCC)CCCCCCCC)C(C)(C)C (stereo not shown) [Lipid 317] | – | – |
| – | – | CCCCCCCCCCCC(=O)N(CCCN(CC)CC)C(C(=O)NCCCCCCCC(=O)OC(CCCCCCCC)CCCCCCCC)C(C)(C)C (stereo not shown) [Lipid 178] | 9.50E+08 p/s | – |
| – | – | CCCCCCCCC(=O)OCCCNC(=O)C(N(CCCN(C)C)C(=O)CCCCCCC/C=C\C[C@H](O)CCCCCC)C(C)(C)C (stereo partly shown) [Lipid 166] | 2.98E+09 p/s | – |
| – | – | CCCCCCCCC(CCCCCCCC)OC(=O)CCCCCCCNC(=O)C(N(CCCN(CC)CC)C(=O)CCCCCCC/C=C\C[C@H](O)CCCCCC)C(C)(C)C (stereo partly shown) [Lipid 181] | 3.86E+09 p/s | – |
| – | – | CCCCCCCCC(CCCCCCCC)OC(=O)CCCCCCCNC(=O)C(N(CCCN(C)C)C(=O)CCCCCCC/C=C\C[C@H](O)CCCCCC)C(C)(C)C (stereo partly shown) [Lipid 176] | 9.19E+08 p/s | – |

| PDI [1] | Particle size [1] | Compound | Chemiluminescent signal (p/s) (C57Bl/6 mice; [2]) | Chemiluminescent signal (p/s) (C57Bl/6 mice; [3]) |
| --- | --- | --- | --- | --- |
| – | – | CCCCCCCC/C=C\CCCCCCCC(=O)OCCCNC(=O)C(C(CC)CC)N(CCCN(CC)CC)C(=O)CCCCCCCCCCC (stereo not shown) [Lipid 113] | 3.39E+08 p/s | – |
| – | – | CCCCCCCC/C=C\CCCCCCCCNC(=O)C(C1CCCCC1)N(CCN1CCN(C)CC1)C(=O)CCCCCCCCCCC (stereo not shown) [Lipid 60] | 4.10E+07 p/s | – |
| – | – | CCCCC/C=C\C/C=C\CCCCCCCC(=O)N(CCCN(C)C)C(CC)C(=O)NCCCCCCCC(=O)OC(CCCCCCCC)CCCCCCCC (stereo not shown) [Lipid 950] | – | 3.41E+07 p/s |
| 0.17 | 104.99 ± 1.21 nm·days | CCCCCCCC/C=C\CCCCCCCCNC(=O)C(N(CCCN(C)C)C(=O)OCCCCCCCCCCCC)C(C)(C)C (stereo not shown) [Lipid 327] | – | – |
| – | – | CCCCC/C=C\C/C=C\CCCCCCCC(=O)N(CCCN(C)C)C(C(=O)NCCCCCCOC(=O)C(CCCCCC)CCCCCCCC)C(C)(C)C (stereo not shown) [Lipid 285] | 2.91E+10 p/s | – |
| – | – | CCCCCCCCCCCC(=O)N(CCCN(C)C)C(C(=O)NCCCCCCCC(=O)OC(CCCCCCCC)CCCCCCCC)C(C)(C)C (stereo not shown) [Lipid 173] | 5.48E+08 p/s | – |
| – | – | CCCCCCCCCCCCCC(=O)N(CCCN(CC)CC)C(C(=O)NCCCCCCCC(=O)OC(CCCCCCCC)CCCCCCCC)C(C)(C)C (stereo not shown) [Lipid 179] | 2.60E+09 p/s | – |
| 0.26 | 150.04 ± 0.93 nm·days | CCCCCCCCC(CCCCCC)C(=O)OCCCCCCNC(=O)C(N(CCCN(CC)CC)C(=O)CCCCCCC/C=C\C[C@H](O)CCCCCC)C(C)(C)C (stereo partly shown) [Lipid 294] | – | – |
| 0.19 | 160.5 ± 2.71 nm·days | CCCCC/C=C\C/C=C\CCCCCCCC(=O)N(CCCN(C)C)C(C(=O)NCCCCCCCC(=O)OC(CCCCCCCC)CCCCCCCC)C1CC1 (stereo not shown) [Lipid 936] | – | – |
| – | – | CCCCCCCCCCCCCCNC(=O)C(N(CCN(C)CCO)C(=O)CCCCCCCCCCCCC)C(C)(C)C (stereo not shown) [Lipid 194] | 3.84E+09 p/s | – |
| 0.16 | 162.45 ± 2.28 nm·days | CC/C=C\C/C=C\C/C=C\C/C=C\C/C=C\CCCC(=O)N(CCCN(CC)CC)C(C(=O)NCCCCCCOC(=O)C(CCCCCC)CCCCCCCC)C(C)(C)C (stereo not shown) [Lipid 295] | – | – |
| 0.18 | 111.42 ± 4.09 nm·days | CCCCCCCC/C=C\CCCCCCCCNC(=O)C(N(CCCN(C)C)C(=O)NCCCCCCCCCCCC)C(C)(C)C (stereo not shown) [Lipid 326] | – | – |
| – | – | CCCCCCCCC(CCCCCC)C(=O)OCCCCCCNC(=O)C(N(CCCN(C)C)C(=O)CCCCCCC/C=C\C[C@H](O)CCCCCC)C(C)(C)C (stereo partly shown) [Lipid 286] | 4.78E+10 p/s | – |
| – | – | CCCCCCCCCCCCCC(=O)N(CCCN(C)C)C(CC)C(=O)NCCCCCCOC(=O)C(CCCCCC)CCCCCCCC (stereo not shown) [Lipid 1041] | – | 3.31E+06 p/s |
| – | – | CCCCCCCC/C=C\CCCCCCCCNC(=O)C(N(CCCN(CC)CC)C(=O)CCCCCCCCCCC)C(C)(C)C (stereo not shown) [Lipid 30] | 1.35E+08 p/s | – |
| – | – | CCCCC/C=C\C/C=C\CCCCCCCC(=O)N(CCCN(CC)CC)C(C(=O)NCCCOC(=O)CCCCCCCC)C(C)(C)C (stereo not shown) [Lipid 170] | 5.52E+08 p/s | – |

| Compound | PDI [1] | Particle size [1] | Chemiluminescent signal (p/s) (C57Bl/6 mice; [2]) | Chemiluminescent signal (p/s) (C57Bl/6 mice; [3]) |
| --- | --- | --- | --- | --- |
| CCCCCCCCC(CCCCCCCC)OC(=O)CCCCCCCNC(=O)C(N(CCCN(C)C)C(=O)CCCCCCCCCC(=O)OC(CCCCCC)CCCCCC)C(C)(C)C (stereo not shown) [Lipid 408] | 0.18 | 101.7 ± 5.09 nm·days | – | 1.03E+11 p/s |
| CCCCCCCCC(CC)OC(=O)CCCCCCC(=O)N(CCCN(C)C)C(C(=O)NCCCCCCOC(=O)C(CCCCCC)CCCCCCCC)C(C)(C)C (stereo not shown) [Lipid 406] | 0.17 | 95.9 ± 0.75 nm·days | – | 1.04E+11 p/s |
| CCCCCCCCC(CC)OC(=O)CCCCCCCNC(=O)C(N(CCCN(C)C)C(=O)CCCCCCC(=O)OC(CC)CCCCCCCC)C(C)(C)C (stereo not shown) [Lipid 401] | 0.19 | 93.6 ± 0.84 nm·days | – | 5.92E+10 p/s |
